# Where “and” joins values, the source holds several entries; their conditions need not be identical. Equal entries are not always repeated. Where two headings read alike, the source gives them in different places.
# Tests used:
# [1] = Twenty-four hour ocular pharmacokinetics of ^14C-labeled bromfenac following topical instillation; assay type: in vivo, New Zealand White rabbit
# Procedure: Twenty-four hour ocular pharmacokinetics of a formulation of ^14C-labeled bromfenac following topical instillation in New Zealand White rabbit eyes was evaluated. ^14C-labeled bromfenac was analyzed to verify the radioactive purity prior to use. Dosing solutions were prepared and analyzed after dosing to confirm the radiochemical purity of the dosing solution. The radioactive concentration of the dosing solutions was calculated by liquid scintillation counting (LSC). Treatment parameters are summarized below:
# On Day 1, 50 μL of the dosing solution was topically instilled into both eyes of each animal. Animals were weighed at randomization and prior to dosing on Day 1. Animals were euthanized by an intravenous injection of a commercial euthanasia solution at 1 hour±5 minutes, 2 hours±15 minutes, 4 hours±15 minutes, 8 hours±15 minutes, 12 hours±15 minutes, or 24 hours±15 minutes following dosing. After euthanasia, each eye was rinsed with normal saline. Aqueous humor was collected from both eyes and the weight was recorded. The globes were enucleated and frozen in liquid nitrogen. The globes were stored at ≤−70° C. prior to dissection. The iris/ciliary body, lens, vitreous, retina, choroid, sclera, conjunctiva, and cornea were collected from each eye, weighed, and stored at ≤−15° C. prior to analysis. Aqueous humor samples were stored at ≤−15° C. until analyzed.
# All radioactivity measurements were performed using a Beckman Liquid Scintillation Spectrometer. The iris/ciliary body, lens, retina, choroid, sclera, conjunctiva, and cornea from each eye were weighed into combustion cones and combusted. Duplicate aliquots of each aqueous humor sample and each vitreous humor sample were transferred to LSC vials using Insta-Gel as the scintillation fluid and the amount of radioactivity was determined.
# The dosing solution was prepared by weighing 2.41 mg of ^14C-labeled bromfenac sodium and dissolving into 3 mL diluent to achieve a non-radioactive concentration of 0.7 mg/mL (0.07% w/v) bromfenac free acid, a radioactive concentration of 129.7 μCi/mL, and a pH of 7.8.
# On Day 1, 50 μL of the dosing solution was topically instilled into both eyes of each animal. The dosing solution was instilled into the conjunctival sac using a calibrated pipette, and the eyelid was held closed for 5-10 seconds following the dose. Any dosing solution found at the margin of the eyelid after dosing was recovered with a Lasik spear. The time of each dose administration was recorded.
# Animals were euthanized by an intravenous injection of a commercial euthanasia solution at 1 hour±5 minutes, 2 hours±15 minutes, 4 hours±15 minutes, 8 hours±15 minutes, 12 hours±15 minutes, or 24 hours±15 minutes following dosing.
# After euthanasia, each eye was rinsed with normal saline. Aqueous humor was collected from both eyes and the weight was recorded. The globes were enucleated and frozen in liquid nitrogen. The globes were stored at ≤−70° C. prior to dissection. The iris/ciliary body, lens, vitreous, retina, choroid, sclera, conjunctiva, and cornea were collected from each eye, weighed, and stored at ≤−15° C. prior to analysis. The start time of necropsy was recorded. Aqueous humor samples were stored at ≤−15° C. until analyzed.
# The iris/ciliary body, lens, retina, choroid, sclera, conjunctiva, and cornea from each eye were weighed into combustion cones and combusted with the exception of the left eye from Animal No. 731. The retina, choroid, and cornea from this eye were lost during processing and could not be recovered. No radioactivity data is available for these tissues.
# Combusted samples were trapped in […] (RJ Harvey) present in LSC vials and the amount of radioactivity determined by LSC. Duplicate aliquots of each aqueous humor sample (approximately 25 μL) were transferred to LSC vials and the amount of radioactivity was determined by LSC using Insta-Gel as the scintillation fluid. […]
# [2] = assay type: in vivo; settings: for Mortality/Morbidity: animals found dead or euthanized prior to scheduled euthanasia/number in group
# [3] = Group A, 1 hr. post-dose, 0.07% pH 7.8, 50 μL per eye topical
# [4] = Group B, 2 hr. post-dose, 0.07% pH 7.8, 50 μL per eye topical
# [5] = Group C, 4 hr. post-dose, 0.07% pH 7.8, 50 μL per eye topical
# [6] = Group D, 8 hr. post-dose, 0.07% pH 7.8, 50 μL per eye topical
smiles,measurement,setting,value
Nc1c(CC(=O)O)cccc1C(=O)c1ccc(Br)cc1 [^14C-labeled Bromfenac],Radioactivity detected by LSC in the lens and the vitreous humor,[1]; 24 hour study period,very low and close to background values
same,"Radioactive residues, Total of eye tissues, Mean",[1]; [3],1.187 Percent Dose
same,"Radioactive residues, Total of eye tissues, single eyes OD/OS",[1]; [3],0.954 Percent Dose and 1.172 Percent Dose and 1.011 Percent Dose and 1.423 Percent Dose and 1.185 Percent Dose and 1.374 Percent Dose
same,"Radioactive residues, Total of eye tissues, Mean",[1]; [4],0.867 Percent Dose
same,"Radioactive residues, Total of eye tissues, single eyes OD/OS",[1]; [4],0.923 Percent Dose and 0.762 Percent Dose and 0.782 Percent Dose and 1.246 Percent Dose and 0.725 Percent Dose and 0.761 Percent Dose
same,"Radioactive residues in Conjunctiva, Mean",[1]; [5],0.142 Percent Dose
same,"Radioactive residues, Total of eye tissues, Mean",[1]; [5],0.550 Percent Dose
same,"Radioactive residues in Cornea, Mean",[1]; [6],0.471 ppm (μg-eq/g)
same,"Radioactive residues, Total of eye tissues, Mean",[1]; [6],0.228 Percent Dose
same,"Radioactive residues, Total of eye tissues, Mean","[1]; Group E, 12 hr. post-dose, 0.07% pH 7.8, 50 μL per eye topical",0.107 Percent Dose
same,"Radioactive residues, Total of eye tissues, Mean","[1]; Group F, 24 hr. post-dose, 0.07% pH 7.8, 50 μL per eye topical",0.034 Percent Dose
same,Tissues with the highest concentrations of drug-derived radioactivity,"[1]; mean ppm (μg/g), 24 hour study period","cornea, conjunctiva, and sclera"
same,Mortality/Morbidity,"[2]; Group A, necropsy 1 hour post-dose",0/3
same,Mortality/Morbidity,"[2]; Group B, necropsy 2 hours post-dose",0/3
same,Mortality/Morbidity,"[2]; Group C, necropsy 4 hours post-dose",0/3
same,Mortality/Morbidity,"[2]; Group D, necropsy 8 hours post-dose",0/3
same,Mortality/Morbidity,"[2]; Group E, necropsy 12 hours post-dose",0/3
same,Mortality/Morbidity,"[2]; Group F, necropsy 24 hours post-dose",0/3
same,"Mortality, whole study","[2]; all groups, up to 24 hours after 50 μL 0.07% per eye",no mortality

# Source: patent publication US10085958B2, “Bromfenac bioavailability” (BAUSCH & LOMB PHARMA HOLDINGS CORP., priority 2011, dated 2018)
